The text below walks through data of patent publication EP2613758B1, “MACROEMULSIONS WITH IMPROVED DEODORANT EFFICACY” (Beiersdorf AG, priority 2010, dated 2012).

The test system of one experiment is Bakterien. Briefly: Investigations of efficacy of amphiphilic actives from micro- and macroemulsions (method not specified).
The test system of a further experiment is S. epidermidis. Briefly: Suspension test (germ count reduction by the formulation). In kind it is cell-based. Particulars: active alone; Ethylhexylglycerin 0,5% in Makroemulsion ohne Octenidine (Abbildung 4). The procedure:
Die Wirksamkeit wurde mittels der Freisetzung von Octenidine aus Makro- bzw. Mikroemulsionen untersucht, wie es beispielhaft in Abbildung 3 und 4 dargestellt ist. Ebenso sind Untersuchungen durchgeführt worden für W/O- Aerosol-Zubereitungen einmal mit und einmal ohne Octenidine, die zu gleichen Ergebnissen geführt haben. In den dargestellten Suspensionstests wurden zu 500µL einer Bakteriensuspension (S. epidermidis) 250 mg der zu testenden Formulierung gegeben (bei der Positivkontrolle nur 250 mg des Bakterienmediums). Diese Mischungen werden mit Medium auf 1000µL aufgefüllt. Die Suspension enthält dann ca. 1*10^6 KBE/mL (KBE: koloniebildende Einheiten). Die Ansätze werden bei 37°C unter Rotation für drei Stunden inkubiert. Nach 0, 20, 60 und 180 min werden Proben genommen, verdünnt und auf Agarplatten ausplattiert. Diese werden 24h bei 37°C zur Anzucht der verbleibenden Keime inkubiert. Gute und in vivo wirksame Deodorant-Formulierungen reduzieren die Keimzahl bereits nach 20 Minuten auf Nachweisgrenze von 100 KBE/mL. Formulierungen mit schlechterer Keimzahl-Reduktion zeigen in vivo keine ausreichende Deoleistung.

Regarding `CC(C)(C)CC(C)(C)c1ccc(OCCOCC[N+](C)(C)Cc2ccccc2)cc1` [Benzethonium chloride], the Wirksamkeit result with Bakterien (aus Makroemulsionen) is “zeigen eine Wirksamkeit”; in the experiment with Bakterien (in einer Mikroemulsion), “unwirksam”.

With `CCCCC(CC)COCC(O)CO` (centres unmarked) [Ethylhexylglycerin, 1-(2-Ethylhexyl)glycerinether], the “Wirksamkeit im Suspensionstest (Keimzahl-Reduktion)” value in the experiment on S. epidermidis was “nicht wirksam”.

As to `CCCCCCCCN=c1ccn(CCCCCCCCCCn2ccc(=NCCCCCCCC)cc2)cc1.Cl.Cl` [Octenidine HCl, N, N'-(1,10-decanediyldi-1[4H]-pyridinyl-4-ylidene)-bis-(octanamine) dihydrochloride], the Wirksamkeit entry with Bakterien (aus Makroemulsionen) is “zeigen eine Wirksamkeit”. Further, the “Wirksamkeit im Suspensionstest (Keimzahl-Reduktion)” value with S. epidermidis was “gewünschte Wirksamkeit”.
